Reference: patent US6440980B1, “Synergistic inhibition of viral replication by long-chain hydrocarbons and nucleoside analogs” (Avanir Pharmaceuticals, priority 1996, dated 2002)
Where two headings read alike, the source gives them in different places.

Key:
HSV-2 [1] = assay: Cutaneous HSV-2 model in hairless guinea pigs, combination cream (Example 15); type: in vivo; settings: 96 hours post-HSV-2-inoculation; cream two times daily; untreated mean 27 vesicles
HSV-1 [2] = assay: HSV-1 PFU production in Vero cell cultures; type: cell-based, HSV-1 (MacIntyre strain)
[3] = test system: Varicella Zoster Virus (VZV); assay: VZV infectious center assay in MRC-5 cells; type: cell-based, human varicella zoster virus (Ellen strain); settings: for EC50: Human alphaherpesvirus 3, MRC5, read-out: ACV Efficacy EC50 (μM), VZV; for EC90: Human alphaherpesvirus 3, MRC5, read-out: ACV Efficacy EC90 (μM), VZV
Cytomegalovirus (CMV) = assay: CMV infectious center assay in MRC-5 cells; type: cell-based, human cytomegalovirus (Towne strain); settings: for EC50: Human betaherpesvirus 5, MRC5, read-out: ACV Efficacy EC50 (μM), CMV; for EC90: Human betaherpesvirus 5, MRC5, read-out: ACV Efficacy EC90 (μM), CMV
vaccinia virus = assay: microbe, parasite or virus in culture; type: cell-based, vaccinia virus (WR strain); settings: with or without n-docosanol
Vero cells [4] = test system: Vero cells
[5] = cited from earlier work
HSV-2 [6] = assay: Inhibition of HSV-2 plaque formation in Vero cells; settings: for EC50: Human alphaherpesvirus 2, Vero
HSV-2 [7] = assay: Transmucosal suppository treatment of HSV-2 infection (Example 13); type: in vivo, human; settings: 8 mM brassidyl alcohol suppositories
Experimental: Suppositories containing 8 mM brassidyl alcohol in a nonionic detergent suspension, prepared essentially as in Examples 1 and 5, are formulated by adding anhydrous dextrose (300-400 mg/suppository), vegetable starch (300-400 mg/suppository) and magnesium stearate (5-10 mg/suppository) to produce a mixture that is compressed into suppositories (1-10 g per suppository) for vaginal insertion.
Fifteen HSV-2 infected women with past histories of vaginal and/or perivaginal herpes lesions are provided with the suppositories and instructed to use one to four suppositories per day when herpes lesions or discomfort associated with herpes lesions are detected. The women are instructed to record their observations about the duration of the active infection, the severity of the lesions (erythema, papule, vesicle, edema or scab phases), the relative numbers of lesions detected to past occurrences of active infection, and the subjective degrees of pain or discomfort associated with the active infection episode. The women are instructed to use the suppositories as soon as active infection or symptoms of active infection are detected. The women have a past mean of 12 days duration for lesions that develop into vesicles if untreated.

HSV-1 [8] = assay: Inhibition of HSV-1 plaque formation in Vero cells (brassidyl alcohol, TETRONIC-908 suspension); settings: Human alphaherpesvirus 1, Vero, read-out: Percent Inhibition of Plaque Formation
all cell lines tested = assay: Cytotoxicity in mammalian cell cultures; settings: surfactant suspensions
Text: Three assays were used to quantitate the effects of aliphatic alcohols on cell survival and proliferation: 1) counting cells with a hemocytometer and determining the number of cells that exclude trypan blue; 2) measuring the incorporation of ^3H-thymidine into cellular DNA by adding ^3H-thymidine (from New England Nuclear) to the culture medium, lysing the cells with water and harvesting the DNA onto filter paper; and 3) measuring total cellular protein using a sulforhodamine assay adapted for use in 96-well microtiter plates (Skehan et al., J. Natl. Cancer Inst. […] All of these methods are well known cell viability and cytotoxicity assays.

EBV = assay: Systemic treatment of EBV infection, infectious mononucleosis (Example 14); type: in vivo, human; settings: 10 mM n-hexacosanol suspension injected
Experimental: Ten young adults (age 14-19 yr) diagnosed with infectious mononucleosis (sore throat, fever, malaise, generalized lymphadenopathy, atypical mononucleosis T-lymphocytes in peripheral blood, a total white cell count of 12,000-18,000 in the blood) are treated systemically with a sterile aqueous suspension of a nonionic detergent surfactant containing 10 mM n-hexacosanol, prepared essentially as in Example 1. The suspension is injected (intramuscular or intravenous) in dosages of 0.1 mg/kg to 0.02 gm/kg of the aliphatic alcohol administered by a physician under clinical conditions. The symptoms of the individuals are then monitored daily for one week and weekly for three months for indications of infectious mononucleosis. All of the individuals test EBV-positive at the end of the study period as determined by detection of anti-EBV antibodies in their serum using standard immunoassays.

HSV-2 [9] = assay: Topical treatment of HSV-2 in guinea pig model, number of vesicles (Example 9); type: in vivo, hairless guinea pigs; settings: mean; for Number of Vesicles Day 2: 48 hr post-inoculation; for Number of Vesicles Day 3: 72 hr post-inoculation; for Number of Vesicles Day 4: 96 hr post-inoculation
[10] = male, hairless, guinea pig, in vivo, 2 day
Vero cells [11] = assay: Cytotoxicity to Vero cells (monolayer integrity, trypan blue exclusion)

Nc1nc2c(ncn2COCCO)c(=O)[nH]1 [ACV, 9-(2-hydroxy)-ethoxymethyl-guanine]
reduction of mean vesicle numbers (HSV-2 [1]): 50%
lowering of the ACV EC90 (HSV-1 [2]; 3.3 mM n-docosanol): 17 fold
reduction of the ACV EC90 (HSV-1 [2]; 10 mM n-docosanol): 40 fold
reduction of EC90 by n-docosanol (HSV-1 [2]; 15 mM n-docosanol): 21 fold
EC90 (HSV-1 [2]; 15 mM n-docosanol, 500 PFU/culture, three days, read-out: EC90 for inhibition of HSV-1 PFU production in the presence of n-docosanol): 0.9 µM
EC90 (HSV-1 [2]; Human alphaherpesvirus 1, Vero, 72 h, control cultures without n-docosanol, 500 PFU/culture, three days, read-out: EC90 for inhibition of HSV-1 PFU production, drug used alone): 19 µM
EC90 (HSV-1 [2]; Human alphaherpesvirus 1, Vero, read-out: ACV EC90 for inhibition of HSV-1 production, 30 mM n-docosanol): < 0.1 µM
EC90 (HSV-1 [2]; Human alphaherpesvirus 1, Vero, read-out: ACV EC90 for inhibition of HSV-1 production, medium only or medium plus PLURONIC F-68, 500 PFU per culture, 72 hours): 10 µM
EC50 ([3]; Medium Only): 3 µM
EC50 ([3]; with Pluronic F-68): 3 µM
EC50 ([3]; with n-Docosanol, 3.3 mM): 1 µM
EC50 ([3]; with n-Docosanol, 10 mM): 0.6 µM
EC50 ([3]; with n-Docosanol, 30 mM): 0.3 µM
EC90 ([3]; Medium Only): 10 µM
EC90 ([3]; with Pluronic F-68): 10 µM
EC90 ([3]; with n-Docosanol, 3.3 mM): 6 µM
EC90 ([3]; with n-Docosanol, 10 mM): 4 µM
EC90 ([3]; with n-Docosanol, 30 mM): 2 µM
reduction of ACV EC50's and EC90's (Cytomegalovirus (CMV); CMV, n-docosanol concentrations of 10-30 mM): 90%
EC50 (Cytomegalovirus (CMV); Medium Only): 30 µM
EC50 (Cytomegalovirus (CMV); with Pluronic F-68): 30 µM
EC50 (Cytomegalovirus (CMV); with n-Docosanol, 3.3 mM): 8 µM
EC50 (Cytomegalovirus (CMV); with n-Docosanol, 10 mM): 2 µM
EC50 (Cytomegalovirus (CMV); with n-Docosanol, 30 mM): 2 µM
EC90 (Cytomegalovirus (CMV); Medium Only): 250 µM
EC90 (Cytomegalovirus (CMV); with Pluronic F-68): 250 µM
EC90 (Cytomegalovirus (CMV); with n-Docosanol, 3.3 mM): 35 µM
EC90 (Cytomegalovirus (CMV); with n-Docosanol, 10 mM): 25 µM
EC90 (Cytomegalovirus (CMV); with n-Docosanol, 30 mM): 6 µM
sensitivity of vaccinia virus to ACV (in words) (vaccinia virus): insensitive
cellular toxicity, such as cytoplasmic vacuoles (Vero cells [4]): not observed
steady state acyclovir plasma concentration ([5]; acyclovir 5 mg/kg by 1-hour infusions every 8 hours): approximately 10 μg/ml
maximum average acyclovir plasma concentration ([5]; oral acyclovir 500 mg 5 times a day): approximately 0.7 μg/ml
enhancement of ACV activity (HSV-2 [6]; 3 mM n-docosanol): 25 fold
EC50 (HSV-2 [6]; 44 h, read-out: ACV 50% effective concentration (EC50), plaque formation, medium alone, 50 PFU HSV-2, scored 44 hours): 0.005 mM
EC50 (HSV-2 [6]; read-out: ACV EC50, plaque formation): 0.0002 mM

CCCCCCCC/C=C/CCCCCCCCCCCCO [brassidyl alcohol, trans-13-docosen-1-ol]
mean duration of the HSV-2 active infection, five women (HSV-2 [7]): 3 to 4 days
inhibition at 1000 µM (HSV-1 [8]): 27%
inhibition at 2000 µM (HSV-1 [8]): 35%
inhibition at 4000 µM (HSV-1 [8]): 44%
inhibition at 8000 µM (HSV-1 [8]): 48%

CCCCCCCCCCCCCCCCCCCCCCCCCCO [n-hexacosanol]
cytotoxicity of the suspensions (in words) (all cell lines tested): same minimal level of cytotoxicity
time to decrease in atypical mononucleosis T-lymphocytes in peripheral blood (EBV): four
EC50 (HSV-2 [6]; read-out: 50% Inhibition Concentration (mM)): 8.4 mM

CCCCCCCCCCCCCCCCCC(=O)O [stearic acid]
Number of Vesicles Day 2 (HSV-2 [9]; 10% w/w cream topically 3X/day from 24 hr post-inoculation): 49
Number of Vesicles Day 3 (HSV-2 [9]; 10% w/w cream topically 3X/day): 17
Number of Vesicles Day 4 (HSV-2 [9]; 10% w/w cream topically 3X/day): 11
Number of Vesicles Day 2 (HSV-2 [9]; 10% w/w cream topically 5X/day): 49
Number of Vesicles Day 3 (HSV-2 [9]; 10% w/w cream topically 5X/day): 13
Number of Vesicles Day 4 (HSV-2 [9]; 10% w/w cream topically 5X/day): 5
Irritation Score Day 2 [10]: 0
inhibition of HSV-2 plaque formation relative to infected control cell cultures (HSV-2 [6]; 11 μM and 22 μM in TETRONIC 908, 3.5 μM in ethanol): less than 10%
cytotoxicity by microscopic examination (Vero cells [11]; 11 μM and 22 μM suspensions in TETRONIC 908 and 3.5 μM solution in ethanol): No apparent toxicity
cytotoxicity by microscopic examination (Vero cells [11]; 44 μM TETRONIC 908 suspension and 35 μM ethanol solution): Moderate toxicity
cytotoxicity by microscopic examination (Vero cells [11]; suspensions and solutions of 88 μM to 350 μM): toxic
